Test results published in patent US20250320252A1 (The Scripps Research Institute, priority 2021, published 2025).
Read-outs that look alike come from different tables or passages of the source. Numbered stars: 1 amine (or outer) side, 2 acyl side, 3 side chain; on linkers, the order of the positions; unused ones are H or OH. Bridge positions count the residues as written; N and C are the ends. Square brackets hold non-standard residues; d marks the D form. Peptide text beside a SMILES is read from it. X2 = O=C(O)CCCCCCCCCCCCCCCCCCC(=O)N[C@@H](CCCCNC(=O)CCOCCOCCNC(=O)CCOCCOCCNC(=O)CCC(=O)N(CCNC(=O)C[*:1])CCNC(=O)C[*:2])C(=O)O; Aib = CC(C)(N)C(=O)O

How the values were obtained:
human GLP-1R = molecular target: T1, human GLP-1R (Homo sapiens, UniProt P43220); assay: In vitro receptor activation reporter assay (CRE-Luc), HEK293-GLP-1R-CRE; assay type: cell-based
T1 construct: expressed in transfected cells
Method: (§1) The EC50 of each peptide was determined using GraphPad Prism 6 software (GraphPad, San Diego, CA).
HEK293 cells were infected with lentivirus encoding firefly luciferase gene under the control of cAMP responsive element (CRE) promoter (Qiagen, The Netherlands) and then were selected using 1 g/mL puromycin (Life Technologies, Carlsbad) for 1 week. The surviving cells (referred to as CRE-HEK293) were expanded and then transfected with a G418 selective mammalian expression plasmid encoding human GLP-1R. In brief, GLP-1R plasmid was transfected into CRE-HEK293 cells using Lipofectamine 2000 and selected with 400 g/mL Geneticin (Life Technologies, Carlsbad, CA). Single colony stable cell line overexpressing CRE-luciferase and GLP1R was then established for in vitro activity assay.

human GIPR = molecular target: T2, human GIPR (Homo sapiens, UniProt P48546); assay: In vitro receptor activation reporter assay (CRE-Luc), HEK293-GIPR-CRE; assay type: cell-based
T2 construct: expressed in transfected cells
T2 sequence (P48546 22-466): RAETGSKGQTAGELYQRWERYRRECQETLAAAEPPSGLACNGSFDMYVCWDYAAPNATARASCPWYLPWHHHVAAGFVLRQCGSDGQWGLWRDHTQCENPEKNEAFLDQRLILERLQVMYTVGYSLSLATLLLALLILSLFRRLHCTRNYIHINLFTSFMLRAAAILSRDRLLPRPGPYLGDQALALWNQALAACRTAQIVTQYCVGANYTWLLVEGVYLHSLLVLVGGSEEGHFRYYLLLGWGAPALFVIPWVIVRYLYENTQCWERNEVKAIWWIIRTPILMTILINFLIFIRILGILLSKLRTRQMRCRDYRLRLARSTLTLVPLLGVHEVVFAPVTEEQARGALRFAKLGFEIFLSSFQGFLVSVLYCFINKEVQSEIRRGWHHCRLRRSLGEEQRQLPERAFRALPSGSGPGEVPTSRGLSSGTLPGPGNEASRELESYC
From the text: HEK293 cells were infected with lentivirus encoding firefly luciferase gene under the control of cAMP responsive element (CRE) promoter (Qiagen, The Netherlands) and then were selected using 1 g mL^−1 puromycin (Life Technologies, Carlsbad) for 1 week. The surviving cells (referred to as CRE-HEK293) were expanded and then transfected with a G418 selective mammalian expression plasmid encoding human GLP-1R or GIPR. In brief, GLP-1R or GIPR plasmid was transfected into CRE-HEK293 cells using Lipofectamine 2000 and selected with 400 g mL^−1 Geneticin (Life Technologies, Carlsbad, CA). Single colony stable cell line overexpressing CRE-luciferase and GLP-1R or GIPR (HEK293-GLP-1R-CRE or HEK293-GIPR-CRE) was then established for in vitro activity assay.
as §1

[1] = unnumbered table (Table 10), average of runs, read-out: GLP1R (nM) [EC50] average
[2] = unnumbered table (Table 10), run 02/19, read-out: GLP1R (nM) [EC50] 02/19
[3] = unnumbered table (Table 10), run 3/25, read-out: GLP1R (nM) [EC50] 3/25
[4] = unnumbered table (Table 10), run 03/26, read-out: GLP1R (nM) [EC50] 03/26
[5] = Table 9, read-out: EC50 [nM] GIPR

T1 sequence (P43220 24-463): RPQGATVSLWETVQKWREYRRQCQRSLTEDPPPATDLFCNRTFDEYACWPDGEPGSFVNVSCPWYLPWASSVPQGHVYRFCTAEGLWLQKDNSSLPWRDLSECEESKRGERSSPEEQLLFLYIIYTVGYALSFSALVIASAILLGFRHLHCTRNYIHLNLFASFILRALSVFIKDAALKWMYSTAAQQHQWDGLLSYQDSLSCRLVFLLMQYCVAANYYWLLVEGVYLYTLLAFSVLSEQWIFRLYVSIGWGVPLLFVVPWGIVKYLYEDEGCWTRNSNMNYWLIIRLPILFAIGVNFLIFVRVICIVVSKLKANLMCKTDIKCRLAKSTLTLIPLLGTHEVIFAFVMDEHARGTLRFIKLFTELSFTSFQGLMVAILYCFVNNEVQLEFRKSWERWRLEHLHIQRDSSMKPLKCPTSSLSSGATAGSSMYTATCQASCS

| Compound | EC50 (human GLP-1R; [1]) | EC50 (human GLP-1R; [2]) | EC50 (human GLP-1R; [3]) | EC50 (human GLP-1R; [4]) | EC50 (human GIPR; [5]) | also measured |
| --- | --- | --- | --- | --- | --- | --- |
| CC[C@H](C)[C@H](NC(=O)[C@H](CO)NC(=O)[C@H](Cc1ccc(O)cc1)NC(=O)[C@H](CC(=O)O)NC(=O)[C@H](CO)NC(=O)[C@@H](NC(=O)[C@H](Cc1ccccc1)NC(=O)[C@@H](NC(=O)CNC(=O)[C@H](CCC(=O)O)NC(=O)C(C)(C)NC(=O)[C@@H](N)Cc1ccc(O)cc1)[C@@H](C)O)[C@@H](C)O)C(=O)N[C@@H](Cc1ccc(O)cc1)C(=O)N[C@@H](CC(C)C)C(=O)N[C@@H](CC(=O)O)C(=O)N[C@@H](CCCCN)C(=O)N[C@H]1CSCC(=O)NCCN(C(=O)CCC(=O)NCCOCCOCCC(=O)NCCOCCOCCC(=O)NCCCC[C@H](NC(=O)CCCCCCCCCCCCCCCCCCC(=O)O)C(=O)O)CCNC(=O)CSC[C@@H](C(=O)N[C@@H](Cc2c[nH]c3ccccc23)C(=O)N[C@@H](CC(C)C)C(=O)N[C@@H](CC(C)C)C(=O)N[C@@H](C)C(=O)NCC(=O)NCC(=O)N2CCC[C@H]2C(=O)N[C@@H](CO)C(=O)N[C@@H](CO)C(=O)NCC(=O)N[C@@H](C)C(=O)N2CCC[C@H]2C(=O)N2CCC[C@H]2C(=O)N2CCC[C@H]2C(=O)N[C@@H](CO)C(N)=O)NC(=O)[C@H](C(C)C)NC(=O)[C@H](Cc2ccccc2)NC(=O)[C@H](CCC(=O)O)NC(=O)C(C)(C)NC(=O)[C@H](C)NC(=O)[C@H](C)NC1=O [C(17-24) - C20L5A, YAibEGT-FTSDY-SIYLD-KXAAAib-EFVXW-LLAGG-PSSGA-PPPS-NH2 (where each X is C)] | 0.09 nM | 0.07 nM | 0.1 nM | 0.09 nM | 0.05 nM | EC50 (human GLP-1R; Table 9, read-out: EC50 [nM] GLP1R): 0.11 nM; EC50 (human GIPR; unnumbered table (Table 10), average of runs, read-out: GIPR (nM) [EC50] average): 0.03 nM; EC50 (human GIPR; unnumbered table (Table 10), run 02/19, read-out: GIPR (nM) [EC50] 02/19): 0.04 nM; EC50 (human GIPR; unnumbered table (Table 10), run 03/25, read-out: GIPR (nM) [EC50] 03/25): 0.02 nM; EC50 (human GIPR; unnumbered table (Table 10), run 03/26, read-out: GIPR (nM) [EC50] 03/26): 0.03 nM |
| CC[C@H](C)[C@H](NC(=O)[C@H](CC(C)C)NC(=O)[C@H](Cc1c[nH]c2ccccc12)NC(=O)[C@@H]1CSCC(=O)NCCN(C(=O)CCC(=O)NCCOCCOCCC(=O)NCCOCCOCCC(=O)NCCCC[C@H](NC(=O)CCCCCCCCCCCCCCCCCCC(=O)O)C(=O)O)CCNC(=O)CSC[C@H](NC(=O)[C@H](CCCCN)NC(=O)[C@H](CC(=O)O)NC(=O)[C@H](CC(C)C)NC(=O)[C@H](Cc2ccc(O)cc2)NC(=O)[C@@H](NC(=O)[C@H](CO)NC(=O)[C@H](Cc2ccc(O)cc2)NC(=O)[C@H](CC(=O)O)NC(=O)[C@H](CO)NC(=O)[C@@H](NC(=O)[C@H](Cc2ccc(O)cc2)NC(=O)[C@@H](NC(=O)CNC(=O)[C@H](CCC(=O)O)NC(=O)C(C)(C)NC(=O)[C@@H](N)Cc2ccc(O)cc2)[C@@H](C)O)[C@@H](C)O)[C@@H](C)CC)C(=O)N[C@@H](C)C(=O)N[C@@H](C)C(=O)NC(C)(C)C(=O)N[C@@H](CCC(=O)O)C(=O)N[C@@H](Cc2ccccc2)C(=O)N[C@@H](C(C)C)C(=O)N1)C(=O)N[C@@H](C)C(=O)NCC(=O)NCC(=O)N1CCC[C@H]1C(=O)N[C@@H](CO)C(=O)N[C@@H](CO)C(=O)NCC(=O)N[C@@H](C)C(=O)N1CCC[C@H]1C(=O)N1CCC[C@H]1C(=O)N1CCC[C@H]1C(=O)N[C@@H](CO)C(N)=O [6Y, 271, C(17-24) - C20L5A, YAibEGT-YTSDY-SIYLD-KXAAAib-EFVXW-LIAGG-PSSGA-PPPS-NH2 (where each X is C)] (H-Y[Aib]EGTYTSDYSIYLDKCAA[Aib]EFVCWLIAGGPSSGAPPPS-NH2; linker 17-24 via X2) | 0.06 nM | 0.05 nM | 0.07 nM | 0.06 nM |  |  |
| CC[C@H](C)[C@H](NC(=O)[C@H](CO)NC(=O)[C@H](Cc1ccc(O)cc1)NC(=O)[C@H](CC(=O)O)NC(=O)[C@H](CO)NC(=O)[C@@H](NC(=O)[C@H](Cc1ccccc1)NC(=O)[C@@H](NC(=O)CNC(=O)[C@H](CCC(=O)O)NC(=O)C(C)(C)NC(=O)[C@@H](N)Cc1ccc(O)cc1)[C@@H](C)O)[C@@H](C)O)C(=O)N[C@@H](Cc1ccc(O)cc1)C(=O)N[C@H]1CSCC(=O)NCCN(C(=O)CCC(=O)NCCOCCOCCC(=O)NCCOCCOCCC(=O)NCCCC[C@H](NC(=O)CCCCCCCCCCCCCCCCC(=O)O)C(=O)O)CCNC(=O)CSC[C@@H](C(=O)N[C@@H](Cc2ccccc2)C(=O)N[C@H](C(=O)N[C@@H](CC(N)=O)C(=O)N[C@@H](Cc2c[nH]c3ccccc23)C(=O)N[C@@H](CC(C)C)C(=O)N[C@@H](CC(C)C)C(=O)N[C@@H](C)C(=O)NCC(=O)NCC(=O)N2CCC[C@H]2C(=O)N[C@@H](CO)C(=O)N[C@@H](CO)C(=O)NCC(=O)N[C@@H](C)C(=O)N2CCC[C@H]2C(=O)N2CCC[C@H]2C(=O)N2CCC[C@H]2C(=O)N[C@@H](CO)C(N)=O)C(C)C)NC(=O)C(C)(C)NC(=O)[C@H](C)NC(=O)[C@H](C)NC(=O)[C@H](CCC(N)=O)NC(=O)[C@H](CCCCN)NC(=O)[C@H](CC(=O)O)NC1=O [C(14-21) - L5A, YAibEGT-FTSDY-SIYXD-KQAAAib-XFVNW-LLAGG-PSSGA-PPPS-NH2 (where each X is C)] |  |  |  |  | 0.03 nM | EC50 (human GIPR; Table 8, read-out: EC50 [nM] GIPR): 0.03 nM |
| CC[C@H](C)[C@H](NC(=O)[C@H](CC(C)C)NC(=O)[C@H](Cc1c[nH]c2ccccc12)NC(=O)[C@@H]1CSCC(=O)NCCN(C(=O)CCC(=O)NCCOCCOCCC(=O)NCCOCCOCCC(=O)NCCCC[C@H](NC(=O)CCCCCCCCCCCCCCCCCCC(=O)O)C(=O)O)CCNC(=O)CSC[C@H](NC(=O)[C@H](CCCCN)NC(=O)[C@H](CC(=O)O)NC(=O)[C@H](CC(C)C)NC(=O)[C@H](Cc2ccc(O)cc2)NC(=O)[C@@H](NC(=O)[C@H](CO)NC(=O)[C@H](Cc2ccc(O)cc2)NC(=O)[C@H](CC(=O)O)NC(=O)[C@H](CO)NC(=O)[C@@H](NC(=O)[C@H](Cc2ccccc2)NC(=O)[C@@H](NC(=O)CNC(=O)[C@H](CCC(=O)O)NC(=O)C(C)(C)NC(=O)[C@@H](N)Cc2ccc(O)cc2)[C@@H](C)O)[C@@H](C)O)[C@@H](C)CC)C(=O)N[C@@H](C)C(=O)N[C@@H](CCC(N)=O)C(=O)NC(C)(C)C(=O)N[C@@H](C)C(=O)N[C@@H](Cc2ccccc2)C(=O)N[C@@H](C(C)C)C(=O)N1)C(=O)N[C@@H](C)C(=O)N[C@@H](CCC(N)=O)C(=O)NCC(=O)N1CCC[C@H]1C(=O)N[C@@H](CO)C(=O)N[C@@H](CO)C(=O)NCC(=O)N[C@@H](C)C(=O)N1CCC[C@H]1C(=O)N1CCC[C@H]1C(=O)N1CCC[C@H]1C(=O)N[C@@H](CO)C(N)=O [19Q, 21A, 27I, 29Q, C(17-24) - C20L5A, YAibEGT-FTSDY-SIYLD-KXAQAib-AFVXW-LIAQG-PSSGA-PPPS-NH2 (where each X is C)] |  |  |  |  | 0.02 nM |  |
| CC[C@H](C)[C@H](NC(=O)[C@H](CO)NC(=O)[C@H](Cc1ccc(O)cc1)NC(=O)[C@H](CC(=O)O)NC(=O)[C@H](CO)NC(=O)[C@@H](NC(=O)[C@H](Cc1ccccc1)NC(=O)[C@@H](NC(=O)CNC(=O)[C@H](CCC(=O)O)NC(=O)C(C)(C)NC(=O)[C@@H](N)Cc1ccc(O)cc1)[C@@H](C)O)[C@@H](C)O)C(=O)N[C@@H](Cc1ccc(O)cc1)C(=O)N[C@H]1CCCCNC(=O)CN(C(=O)CCNC(=O)CCOCCOCCNC(=O)CCOCCOCCNC(=O)CC[C@H](NC(=O)CCCCCCCCCCCCCCCCC(=O)O)C(=O)O)CC(=O)NCCCC[C@@H](C(=O)N[C@@H](Cc2ccccc2)C(=O)N[C@H](C(=O)N[C@@H](CC(N)=O)C(=O)N[C@@H](Cc2c[nH]c3ccccc23)C(=O)N[C@@H](CC(C)C)C(=O)N[C@@H](CC(C)C)C(=O)N[C@@H](C)C(=O)NCC(=O)NCC(=O)N2CCC[C@H]2C(=O)N[C@@H](CO)C(=O)N[C@@H](CO)C(=O)NCC(=O)N[C@@H](C)C(=O)N2CCC[C@H]2C(=O)N2CCC[C@H]2C(=O)N2CCC[C@H]2C(=O)N[C@@H](CO)C(N)=O)C(C)C)NC(=O)C(C)(C)NC(=O)[C@H](C)NC(=O)[C@H](C)NC(=O)[C@H](CCC(N)=O)NC(=O)[C@H](CCCCN)NC(=O)[C@H](CC(=O)O)NC1=O [mCLZ715, YAibEGT-FTSDY-SIYXD-KQAAAib-XFVNW-LLAGG-PSSGA-PPPS-NH2 (where each X is K)] |  |  |  |  |  | EC50 (human GLP-1R; Table 7, read-out: EC50 [nM] GLP1R): 0.02 nM |
